Results taken from patent publication US4620871A (priority 1980, dated 1986).
Like-named read-outs stand apart in the source and are kept apart here.

Columns and labels:
Wheat = assay: Stimulation of nutrient uptake, labelled phosphate, wheat (Example 24); conditions: for labelled phosphate in nucleic acid fraction: 200 ppm, control 17.4
Experimental: (§1) The compositions according to the invention were diluted with distilled water to an active agent concentration of 200 ppm, and leaf segments of wheat, maize and pea, weighing 200 mg each, were treated with the solutions. Thereafter the treated green leaf segments were treated for 0.5 hours with a solution of labelled phosphate ions (radioactivity: 30 μCi/50 ml). After this exposition period the treated leaf segments and the untreated controls were processed in a manner known per se to isolate the nucleic acid fractions, and the isolated nucleic acid fractions were dissolved in 6 n ammonium hydroxide solution. Stock solutions were prepared from the resulting solutions, and the amount of labelled phosphate ions present in the stock solutions were measured by liquid scintillation.

grass stands = assay: Crop yield and nitrogen content of grass stand (Example 34); type: in vivo; conditions: for Protein nitrogen content / Total nitrogen content / Crop yield: 3 x 2 kg/ha; for Protein nitrogen content: control 2.80; for Total nitrogen content: control 4.22; for Crop yield: 4 m^2 parcels, control 5.10
Experimental: Tests were performed on grass stands to examine how the compositions according to the invention influence the crop yield, furthermore the total nitrogen content and protein nitrogen content of the crop.
Parcels, 4 m^2 in area, were separated and pegged out on a grass land, and the parcels were sprayed three times with the compositions according to the invention. The liquid compositions were diluted with water prior to spraying, and spraying was repeated in every two weeks. A dose of 2 kg/ha w was applied in each of the treatments.
Thereafter the grass was mowed, the green crop was weighed, and the total nitrogen content and protein nitrogen content of the mowed grass were determined.

[1] = tested on: Mexican 226 K wheat variety; assay: Nitrogen contents of grains of Mexican 226 K wheat (Example 31); type: in vivo; conditions: for Protein nitrogen content: control 1.61; for Total nitrogen content: seed 2 kg/ha + soil 2 kg/ha, control 2.12
Experimental: Two wheat varieties, Libelulla and Mexican 226 K, were utilized in the tests performed under large-parcel field conditions. The sowing seeds were coated with the compositions of the invention according to the wet powder seed dressing technique; a dosis of 2 kg/ha was applied.
The soil was also treated with the compositions according to the invention directly before sowing. A dose of 2 kg/ha was applied.
The grain yields of the wheat varieties, harvested from the treated and control parcels, were measured, and the total nitrogen content and protein nitrogen content of the grains were determined.

maize for silage = assay: Green weight and nitrogen content of maize for silage (Example 28); type: in vivo; conditions: for Green weight: 2 kg/ha to soil, 200 m^2 parcels, control 365; for Total nitrogen content, absolute: control 0.30; for Real protein content, absolute: control 1.35; for Crude proteins, absolute: control 1.85; for Total carbon content, absolute: control 8.99; for Air-dry substance, absolute: control 20.57
Experimental: The tests were performed on parcels 200 m^2 in area. The compositions according to the invention were utilized as solid formulations, and were diluted with water prior to applying them onto the soil. The active agent was applied to the soil in an amount of 2 kg/ha directly before sowing. The green weight of the maize for silage, harvested from the treated and control parcels, was measured, and the dry substance content, crude protein content, real protein content, nitrogen content and carbon content of the green plants were determined.

green parts of maize = assay: Stimulation of plant photolysis, HTO, maize (Example 22); conditions: 2 hours; for Radioactivity: 500 ppm, control 4.64
Experimental: The compositions according to the invention were diluted with distilled water to an active agent content of 500 ppm, and green parts of maize, weighing 200 mg, were treated with the resulting solutions for 2 hours. Thereafter the treated green plant parts were treated for one hour with 10 μCi/50 ml HTO, then the plant parts were frozen with liquid nitorgen, triturated, subjected to chromatographic separation, and the radioactivity of the isolated glycerol aldehyde was determined.
In the control test the green parts of maize were treated with distilled water only.

Tobacco callus = assay: Daily growth, cell number and frequency of mitosis of tobacco callus (Example 13); type: cell-based; conditions: for Cell number/g / Daily growth: 10 ppm active agent, 3 weeks
Experimental: An untreated culture medium served as control. Tobacco callus was grown on the treated and untreated culture media (incubation period: 3 weeks), and the daily growth, the increase in cell number and the frequency of mitosis were measured according to the method of Skoog.

Soybean = assay: Grain yield of soybean (Example 30); type: in vivo; conditions: 3 x 2 kg/ha; for Grain yield: control 29.53
Experimental: Soybean cultures were sprayed three times with the compositions according to the invention. The active agents were applied in a dosis of 2 kg/ha, in all of the treatments. The stand was sprayed first at the beginning of flowering, then at the flowering of the apical cluster, and finally two weeks after the second treatment.
The grain yield of soybean, harvested from the treated and control parcels, was measured.

[2] = tested on: Edible beans (Superelite variety); assay: Crop yield of edible beans (Example 35); type: in vivo; conditions: for Crop yield: control 15.00
From the text: Edible beans (Superelite variety) were sprayed once or twice with the compositions according to the invention.
From the data of Table 29 conclusions can be drawn for the correlation between the development stage of the stand at treatment and the effect of the treatment.

Maize = assay: Stimulation of nutrient uptake, labelled phosphate, maize (Example 24); conditions: for labelled phosphate in nucleic acid fraction: 200 ppm, control 31.2
Experimental: as §1

[3] = tested on: Egri leanyka vine variety; assay: Berry yield and sugar content of vine, Egri leanyka (Example 33); type: in vivo; conditions: for Berry yield: 3 x 2 kg/ha, control 151.15; for Sugar content: control 16.7; for Sugar yield: control 18.93
Experimental: Vine stands were sprayed with the compositions according to the invention to examine their effects exerted on the berry yield and sugar content. The compositions, diluted with water, were sprayed three times onto the plants. The first treatment was performed prior to flowering, the second one three weeks later, and the third one six weeks after the first one. The dose applied was 2 kg/ha in each of the treatments.
Comparative tests were also performed with commonly used growth regulating compositions, i.e. CCC (chlorocholine chloride), Ethrel (or Etefon; 2-chloroethylphosphonic acid) and Nevirol (N-phenyl-phthalaiminic acid). The results were compared to those observed with the untreated controls.
Two vine varieties, Pannonia and Egri leanyka, were involved in the tests.

soybean leaf segments = assay: Stimulation of the protein level of soybean, glycine-14C incorporation (Example 18); conditions: 24 hours; for Radioactivity: 200 ppm, control 11.9
Experimental: The active agent to be tested was dissolved in distilled water to form a 200 ppm solution, and soybean leaf segments, weighing 200 mg, were floated on the surface of the solution for 24 hours. In the control test leaf segments, weighing 200 mg, were floated on the surface of distilled water.
The leaf segments were washed with distilled water, and then treated for 3 hours with 20 ml of a solution containing labelled amino acid (glycine-^14 C; activity: 2 μCi). After this exposition period the leaf segments were washed with an aboundant amount of water, and the protein content of the leaf segments was isolated in a manner known per se. Stock solution was prepared from the isolated protein, and the specific radioactivity of the solution was determined by liquid scintillation.

[4] = 2 treatments, 06.20.1979 and 07.06.1979

| SMILES | labelled phosphate in nucleic acid fraction (Wheat) | Protein nitrogen content (grass stands) [%] | Total nitrogen content (grass stands) [%] | Crop yield (grass stands) | Protein nitrogen content, stimulation [1] [%] | Total nitrogen content, stimulation [1] [%] | Protein nitrogen content [1] | Total nitrogen content [1] | Green weight (maize for silage) [kg] | Total nitrogen content, absolute (maize for silage; 2 kg/ha) [%] | Real protein content, absolute (maize for silage; 2 kg/ha) [%] | Crude proteins, absolute (maize for silage; 2 kg/ha) [%] | Total carbon content, absolute (maize for silage; 2 kg/ha) [%] | Air-dry substance, absolute (maize for silage; 2 kg/ha) [%] | Radioactivity (green parts of maize) [dpm/mg dry weight] | Cell number/g (Tobacco callus) | Daily growth (Tobacco callus) [mg] | Grain yield, increase (Soybean) [%] | Grain yield (Soybean) [q/ha] | Crop yield, increase ([2]; 1 treatment, 07.06.1979) [%] | also measured |
| --- | --- | --- | --- | --- | --- | --- | --- | --- | --- | --- | --- | --- | --- | --- | --- | --- | --- | --- | --- | --- | --- |
| N=C(N)N.N=C(N)N.Oc1nnc(O)c2ccccc12 [1,4-dihydroxyphthalazine diguanidine salt] | 29.3 1000 cpm/g | 2.62 | 3.89 | 5.35 | 28.5 | 5.6 | 2.07 % of dry substance | 2.81 % of dry substance | 374 | 0.40 | 1.71 | 2.52 | 9.99 | 22.79 | 11.42 | 266.0 10^4 units | 19.3 | 39 | 41.22 | 18.4 | activation at 200 ppm (Wheat; Triticum aestivum): 68.5%; activation at 500 ppm (green parts of maize; Zea mays): 146%; activity at 10 ppm (Tobacco callus; Nicotiana tabacum, 504 h, 10 ppm, untreated control = 100): 117%; Crop yield ([2]; 1 treatment, 07.06.1979): 17.77 q/ha; labelled phosphate in nucleic acid fraction (Maize): 47.0 1000 cpm/g; activation at 200 ppm (Maize; Zea mays): 50.6%; Berry yield [3]: 124.23 q/ha; Sugar content [3]: 16.8%; Sugar yield [3]: 15.65 q/ha; Radioactivity (soybean leaf segments): 15.5 mu Ci/100 mg; activation at 200 ppm (soybean leaf segments; Glycine max): 30.2% |
| CCC[n+]1c[nH]c2ccccc21.[Br-] [N--(n-Propyl)-benzimidazolium bromide, N-(n-propyl)-benzimidazolium bromide] | 22.8 1000 cpm/g | 3.54 | 5.36 | 5.27 | 8.0 | 1.0 | 1.74 % of dry substance | 2.15 % of dry substance | 389 | 0.86 | 1.4 | 2.25 | 10.27 | 23.48 | 8.76 | 327.5 10^4 units | 22.8 | 30 | 38.67 | 13.5 | Protein nitrogen content, increase (grass stands; in vivo): 26.4%; Total nitrogen content, increase (grass stands; in vivo): 27.0%; Air-dry substance, relative (maize for silage; 2 kg/ha): 14.10%; Crude proteins, relative (maize for silage; 2 kg/ha): 21.7%; Real protein content, relative (maize for silage; 2 kg/ha): 4.4%; Carbon/nitrogen ratio (maize for silage; 2 kg/ha, control 30.86): 28.67; Crop yield, increase ([2]; 1 treatment, 06.20.1979): 18.4%; Crop yield ([2]; 1 treatment, 06.20.1979): 17.77 q/ha; Crop yield ([2]; 1 treatment, 07.06.1979): 17.03 q/ha; Crop yield, increase [2, 4]: 30.1%; Crop yield [2, 4]: 19.52 q/ha; labelled phosphate in nucleic acid fraction (Maize): 39.3 1000 cpm/g; Berry yield, increase [3]: 17.0%; Sugar yield, increase [3]: 17.0%; influence on sugar content, in words [3]: did not influence the sugar content; Berry yield [3]: 176.92 q/ha; Sugar content [3]: 16.7%; Sugar yield [3]: 22.16 q/ha; Berry yield, increase ([3]; listed as N-(n-propyl)-benzimidazolium bromide): 17%; Radioactivity (soybean leaf segments): 13.7 mu Ci/100 mg |
